Results taken from the NIST ThermoML archive (doi:10.1021/je7003929).
Numbers after ± are expanded uncertainties.

Assay: xn = mol fraction of the nth substance listed
Settings: Liquid, Vibrating tube method

c1ccc2sccc2c1 [benzo[b]thiophene] + CCCCCC
Settings | mass density [kg/m3]
322.95 K, 1028 kPa, x2 = 0.0629 | 1103.4 ± 0.5
322.95 K, 2021 kPa, x2 = 0.0629 | 1104.1 ± 0.5
322.95 K, 3029 kPa, x2 = 0.0629 | 1104.7 ± 0.5
322.95 K, 4021 kPa, x2 = 0.0629 | 1105.4 ± 0.5
322.95 K, 5037 kPa, x2 = 0.0629 | 1106.1 ± 0.5
322.95 K, 6021 kPa, x2 = 0.0629 | 1106.7 ± 0.5
322.95 K, 7021 kPa, x2 = 0.0629 | 1107.4 ± 0.5
322.95 K, 8029 kPa, x2 = 0.0629 | 1108.1 ± 0.5
322.95 K, 9018 kPa, x2 = 0.0629 | 1108.7 ± 0.5
322.95 K, 10003 kPa, x2 = 0.0629 | 1109.3 ± 0.5
322.95 K, 10998 kPa, x2 = 0.0629 | 1109.9 ± 0.5
322.95 K, 12016 kPa, x2 = 0.0629 | 1110.6 ± 0.5
322.95 K, 13012 kPa, x2 = 0.0629 | 1111.2 ± 0.5
322.95 K, 14019 kPa, x2 = 0.0629 | 1111.8 ± 0.5
322.95 K, 15018 kPa, x2 = 0.0629 | 1112.5 ± 0.5
322.95 K, 16018 kPa, x2 = 0.0629 | 1113.1 ± 0.5
322.95 K, 17024 kPa, x2 = 0.0629 | 1113.7 ± 0.5
322.95 K, 18018 kPa, x2 = 0.0629 | 1114.4 ± 0.5
322.95 K, 19024 kPa, x2 = 0.0629 | 1115 ± 0.6
322.95 K, 20012 kPa, x2 = 0.0629 | 1115.6 ± 0.6
323.02 K, 1017 kPa, x2 = 0.7491 | 752.7 ± 0.5
323.02 K, 2013 kPa, x2 = 0.7491 | 753.8 ± 0.5
323.02 K, 3014 kPa, x2 = 0.7491 | 754.9 ± 0.5
323.02 K, 4012 kPa, x2 = 0.7491 | 756 ± 0.5
323.02 K, 5008 kPa, x2 = 0.7491 | 757.1 ± 0.5
323.02 K, 6010 kPa, x2 = 0.7491 | 758.1 ± 0.5
323.02 K, 7025 kPa, x2 = 0.7491 | 759.2 ± 0.5
323.02 K, 8028 kPa, x2 = 0.7491 | 760.2 ± 0.5
323.02 K, 9009 kPa, x2 = 0.7491 | 761.2 ± 0.5
323.02 K, 10010 kPa, x2 = 0.7491 | 762.2 ± 0.5
323.02 K, 11002 kPa, x2 = 0.7491 | 763.2 ± 0.5
323.02 K, 12017 kPa, x2 = 0.7491 | 764.1 ± 0.5
323.02 K, 13019 kPa, x2 = 0.7491 | 765.1 ± 0.5
323.02 K, 14006 kPa, x2 = 0.7491 | 766 ± 0.5
323.02 K, 15015 kPa, x2 = 0.7491 | 767 ± 0.5
323.02 K, 16022 kPa, x2 = 0.7491 | 767.9 ± 0.5
323.02 K, 17019 kPa, x2 = 0.7491 | 768.8 ± 0.5
323.02 K, 18016 kPa, x2 = 0.7491 | 769.8 ± 0.5
323.02 K, 19024 kPa, x2 = 0.7491 | 770.6 ± 0.5
323.02 K, 20021 kPa, x2 = 0.7491 | 771.5 ± 0.5
323.09 K, 1017 kPa, x2 = 0.9432 | 659.3 ± 0.5
323.09 K, 2024 kPa, x2 = 0.9432 | 660.6 ± 0.5
323.09 K, 3024 kPa, x2 = 0.9432 | 661.9 ± 0.5
323.09 K, 4016 kPa, x2 = 0.9432 | 663.1 ± 0.5
323.09 K, 5024 kPa, x2 = 0.9432 | 664.2 ± 0.5
323.09 K, 6021 kPa, x2 = 0.9432 | 665.5 ± 0.5
323.09 K, 7018 kPa, x2 = 0.9432 | 666.6 ± 0.5
323.09 K, 8020 kPa, x2 = 0.9432 | 667.8 ± 0.5
323.09 K, 9019 kPa, x2 = 0.9432 | 668.9 ± 0.5
323.09 K, 10010 kPa, x2 = 0.9432 | 670 ± 0.5
323.09 K, 11012 kPa, x2 = 0.9432 | 671.1 ± 0.5
323.09 K, 12013 kPa, x2 = 0.9432 | 672.2 ± 0.5
323.09 K, 13021 kPa, x2 = 0.9432 | 673.3 ± 0.5
323.09 K, 14023 kPa, x2 = 0.9432 | 674.3 ± 0.5
323.09 K, 15015 kPa, x2 = 0.9432 | 675.3 ± 0.5
323.09 K, 16001 kPa, x2 = 0.9432 | 676.3 ± 0.5
323.09 K, 17028 kPa, x2 = 0.9432 | 677.3 ± 0.6
323.09 K, 18003 kPa, x2 = 0.9432 | 678.3 ± 0.6
323.09 K, 19001 kPa, x2 = 0.9432 | 679.3 ± 0.6
323.09 K, 20017 kPa, x2 = 0.9432 | 680.3 ± 0.6
332.66 K, 1020 kPa, x2 = 0.2588 | 991.1 ± 0.5
332.66 K, 2021 kPa, x2 = 0.2588 | 991.9 ± 0.5
332.66 K, 3022 kPa, x2 = 0.2588 | 992.7 ± 0.5
332.66 K, 4018 kPa, x2 = 0.2588 | 993.5 ± 0.5
332.66 K, 5021 kPa, x2 = 0.2588 | 994.3 ± 0.5
332.66 K, 6012 kPa, x2 = 0.2588 | 995 ± 0.5
332.66 K, 7018 kPa, x2 = 0.2588 | 995.8 ± 0.5
332.66 K, 8005 kPa, x2 = 0.2588 | 996.6 ± 0.5
332.66 K, 9012 kPa, x2 = 0.2588 | 997.3 ± 0.5
332.66 K, 10011 kPa, x2 = 0.2588 | 998.2 ± 0.5
332.66 K, 11013 kPa, x2 = 0.2588 | 998.9 ± 0.5
332.66 K, 12006 kPa, x2 = 0.2588 | 999.7 ± 0.5
332.66 K, 13011 kPa, x2 = 0.2588 | 1000.4 ± 0.5
332.66 K, 14000 kPa, x2 = 0.2588 | 1001.2 ± 0.5
332.66 K, 15025 kPa, x2 = 0.2588 | 1002 ± 0.5
332.66 K, 16005 kPa, x2 = 0.2588 | 1002.6 ± 0.5
332.66 K, 17000 kPa, x2 = 0.2588 | 1003.3 ± 0.5
332.66 K, 18002 kPa, x2 = 0.2588 | 1004.1 ± 0.5
332.66 K, 19009 kPa, x2 = 0.2588 | 1004.8 ± 0.5
332.66 K, 20016 kPa, x2 = 0.2588 | 1005.5 ± 0.5
332.77 K, 1019 kPa, x2 = 0.0629 | 1094.5 ± 0.5
332.77 K, 2029 kPa, x2 = 0.0629 | 1095.3 ± 0.5
332.77 K, 3030 kPa, x2 = 0.0629 | 1096 ± 0.5
332.77 K, 4019 kPa, x2 = 0.0629 | 1096.7 ± 0.5
332.77 K, 5026 kPa, x2 = 0.0629 | 1097.4 ± 0.5
332.77 K, 6037 kPa, x2 = 0.0629 | 1098.1 ± 0.5
332.77 K, 7035 kPa, x2 = 0.0629 | 1098.8 ± 0.5
332.77 K, 8021 kPa, x2 = 0.0629 | 1099.5 ± 0.5
332.77 K, 9012 kPa, x2 = 0.0629 | 1100.1 ± 0.5
332.77 K, 10008 kPa, x2 = 0.0629 | 1100.8 ± 0.5
332.77 K, 11026 kPa, x2 = 0.0629 | 1101.5 ± 0.5
332.77 K, 12020 kPa, x2 = 0.0629 | 1102.2 ± 0.5
332.77 K, 13012 kPa, x2 = 0.0629 | 1102.8 ± 0.5
332.77 K, 14016 kPa, x2 = 0.0629 | 1103.4 ± 0.5
332.77 K, 15015 kPa, x2 = 0.0629 | 1104.2 ± 0.5
332.77 K, 16015 kPa, x2 = 0.0629 | 1104.7 ± 0.5
332.77 K, 17020 kPa, x2 = 0.0629 | 1105.4 ± 0.5
332.77 K, 18020 kPa, x2 = 0.0629 | 1106.1 ± 0.5
332.77 K, 19022 kPa, x2 = 0.0629 | 1106.7 ± 0.5
332.77 K, 20017 kPa, x2 = 0.0629 | 1107.3 ± 0.5
332.82 K, 1026 kPa, x2 = 0.9432 | 650.1 ± 0.5
332.82 K, 2016 kPa, x2 = 0.9432 | 651.4 ± 0.5
332.82 K, 3016 kPa, x2 = 0.9432 | 652.8 ± 0.5
332.82 K, 4023 kPa, x2 = 0.9432 | 654.1 ± 0.5
332.82 K, 5004 kPa, x2 = 0.9432 | 655.4 ± 0.5
332.82 K, 6016 kPa, x2 = 0.9432 | 656.7 ± 0.5
332.82 K, 7012 kPa, x2 = 0.9432 | 658 ± 0.5
332.82 K, 8018 kPa, x2 = 0.9432 | 659.2 ± 0.5
332.82 K, 9014 kPa, x2 = 0.9432 | 660.5 ± 0.5
332.82 K, 10014 kPa, x2 = 0.9432 | 661.6 ± 0.5
332.82 K, 11009 kPa, x2 = 0.9432 | 662.8 ± 0.5
332.82 K, 12005 kPa, x2 = 0.9432 | 664 ± 0.5
332.82 K, 13020 kPa, x2 = 0.9432 | 665.1 ± 0.5
332.82 K, 14007 kPa, x2 = 0.9432 | 666.3 ± 0.5
332.82 K, 15005 kPa, x2 = 0.9432 | 667.3 ± 0.5
332.82 K, 16012 kPa, x2 = 0.9432 | 668.4 ± 0.5
332.82 K, 17015 kPa, x2 = 0.9432 | 669.5 ± 0.6
332.82 K, 18010 kPa, x2 = 0.9432 | 670.6 ± 0.6
332.82 K, 19000 kPa, x2 = 0.9432 | 671.6 ± 0.6
332.82 K, 20001 kPa, x2 = 0.9432 | 672.6 ± 0.6
332.86 K, 1031 kPa, x2 = 0.7491 | 743.7 ± 0.5
332.86 K, 2024 kPa, x2 = 0.7491 | 744.9 ± 0.5
332.86 K, 3019 kPa, x2 = 0.7491 | 746.1 ± 0.5
332.86 K, 4001 kPa, x2 = 0.7491 | 747.2 ± 0.5
332.86 K, 5002 kPa, x2 = 0.7491 | 748.4 ± 0.5
332.86 K, 6020 kPa, x2 = 0.7491 | 749.5 ± 0.5
332.86 K, 7005 kPa, x2 = 0.7491 | 750.6 ± 0.5
332.86 K, 8013 kPa, x2 = 0.7491 | 751.7 ± 0.5
332.86 K, 9004 kPa, x2 = 0.7491 | 752.8 ± 0.5
332.86 K, 10000 kPa, x2 = 0.7491 | 753.8 ± 0.5
332.86 K, 11019 kPa, x2 = 0.7491 | 754.9 ± 0.5
332.86 K, 12006 kPa, x2 = 0.7491 | 755.9 ± 0.5
332.86 K, 13014 kPa, x2 = 0.7491 | 757 ± 0.5
332.86 K, 14008 kPa, x2 = 0.7491 | 757.9 ± 0.5
332.86 K, 15007 kPa, x2 = 0.7491 | 758.9 ± 0.5
332.86 K, 16009 kPa, x2 = 0.7491 | 759.9 ± 0.5
332.86 K, 17002 kPa, x2 = 0.7491 | 760.9 ± 0.5
332.86 K, 18026 kPa, x2 = 0.7491 | 761.8 ± 0.5
332.86 K, 19007 kPa, x2 = 0.7491 | 762.8 ± 0.5
332.86 K, 20017 kPa, x2 = 0.7491 | 763.7 ± 0.5
